# Data: ChEMBL document CHEMBL1255298, “Larger vancomycin doses (at least four grams per day) are associated with an increased incidence of nephrotoxicity” (Antimicrob Agents Chemother, 2008)
# Columns and labels:
# Homo sapiens [1] = species on record: Homo sapiens; test: Nephrotoxicity in patient with gram-positive bacterial infection assessed as serum […] level at > 4 g/day measured within 72 hrs; assay type: toxicity, organism-based; conditions: in vivo
# Homo sapiens [2] = species on record: Homo sapiens; test: Nephrotoxicity in patient with gram-positive bacterial infection assessed as change in serum […] level at > 4 g/day measured within 72 hrs; assay type: toxicity, organism-based; conditions: in vivo
smiles,measurement,setting,value
CN[C@H](CC(C)C)C(=O)N[C@H]1C(=O)N[C@@H](CC(N)=O)C(=O)N[C@H]2C(=O)N[C@H]3C(=O)N[C@H](C(=O)N[C@H](C(=O)O)c4cc(O)cc(O)c4-c4cc3ccc4O)[C@H](O)c3ccc(c(Cl)c3)Oc3cc2cc(c3O[C@@H]2O[C@H](CO)[C@@H](O)[C@H](O)[C@H]2O[C@H]2C[C@](C)(N)[C@H](O)[C@H](C)O2)Oc2ccc(cc2Cl)[C@H]1O [VANCOMYCIN],Activity,Homo sapiens [1],2.1 mg/dL
same,Activity,Homo sapiens [2],45.6%
